From article PMC12140300, “Development of Carbon‐11 Labeled Pyrimidine Derivatives as Novel Positron Emission Tomography (PET) Agents Enabling Brain Sigma‐1 Receptor Imaging” (Advanced Science, 2025)

Tests used:
σ1R [1] = molecular target: T1, σ1R (Mus musculus, UniProt O55242); test: Mice PET/CT imaging, baseline and self-blocking; assay type: in vivo, C57BL/6 mice
T1 construct: The PET/CT studies in mice followed previously reported procedures; from tissue; host or cells: mouse brain in vivo (C57BL/6 wild type; 5xFAD transgenic)
Description: PET/CT imaging studies of [^11C]CNY‐01 and [^11C]CNY‐02 were performed in male C57BL/6 mice. […] The whole‐brain time‐activity curve (TAC) of each tracer was generated. […] To investigate the binding specificity of [^11C]CNY‐01 and [^11C]CNY‐02, blocking studies were carried out by pre‐administrating mice with corresponding unlabeled ligands. […] This is due to the receptors in peripheral tissues being occupied by CNY‐01, leading to more radiotracer entering the brain and quickly washing out. […] Of note, the TACs show an increase in brain tracer uptake during the blocking studies, which could be attributed to peripheral blocking effects. To address this, we normalized the brain uptake data to the maximum radioactivity observed in the blood (input function). This normalization allowed us to account for peripheral changes in tracer availability.
Figure 3 Mice PET/CT study with [^11C]CNY‐01 and [^11C]CNY‐02. A) Representative baseline and blocking (pre‐treated with 1.0 mg kg^−1 CNY‐01) PET/CT images of [^11C]CNY‐01 focused on the brain (summed 30‒60 min, n = 4). B) Whole brain time‐activity curves of [^11C]CNY‐01 for baseline and blocking mice. C) The normalized baseline and blocking TACs of [^11C]CNY‐01 (normalized the brain uptake curves with the maximum radioactivity in the blood at each time point). D) Representative baseline and blocking (pre‐treated with 1.0 mg kg^−1 CNY‐02) PET/CT images of [^11C]CNY‐02 focused on the brain (summed 30‒60 min, n = 4). E) Whole brain time‐activity curves of [^11C]CNY‐02 for baseline and blocking mice. F) The normalized baseline and blocking TACs of [^11C]CNY‐02 (normalized the brain uptake curves with the maximum radioactivity in the blood at each time point). Data were presented as mean ± standard error of the mean (SEM). Quantification of results was performed using Student's t‐test (***p < 0.0001).
The PET/CT studies in mice followed previously reported procedures with minor modifications.^[ [53], [54] ^] Mice (wild‐type: C57BL/6, male, 6‐month‐old; AD transgenic: 5xFAD, male, 6‐month‐old, n = 4 for each group) were anesthetized with inhalational isoflurane (Patterson Vet Supply, Inc., Greeley, CO, USA) at 2.0% in a carrier of 2 L min^−1 medical oxygen, and maintained at 1.0% isoflurane during the imaging scan. Mice were injected with radiotracer (200 µL) via lateral tail vein catheterization at the start of the dynamic PET scan (Gamma Medica, Northridge, CA, USA). For blocking studies, the blocking agent was administered via the tail vein 5 min before radiotracer injection. Dynamic PET acquisition lasted 60 min and was followed by computed tomography (CT) for anatomic co‐registration. […] Reconstructed images were exported from the scanner in DICOM format and were analyzed using PMOD (PMOD 4.01).

σ1R [2] = molecular target: T1, σ1R; test: PET/CT imaging in 5xFAD transgenic and WT mice; assay type: in vivo, 5xFAD mice; conditions: 6-month-old male mice, PET/CT 30–60 min
Excerpt: Numerous studies have shown that σ 1R is abnormally expressed in the AD brain, and targeting σ 1R becomes a promising strategy for diagnosis and treatment of AD.^[ [11], [49] ^] To evaluate the diagnostic potential of [^11C]CNY‐01 for AD and its potential application in studying the relationship between the σ 1R and AD pathology, we conducted PET imaging studies on 5xFAD transgenic mice model and the corresponding wild‐type (WT) mice. […] Of particular note, brain regions with relatively high σ 1R expression observed higher reduction of radioactivity uptake, such as the striatum, hippocampus, and cerebellum, indicating a decrease in σ 1R expression in the brain under AD pathological conditions, consistent with previous reports (Figure 5B).^[ [11], [49], [50] ^]
Figure 5 PET/CT imaging studies of [^11C]CNY‐01 in WT and 5xFAD mouse model. A) Representative PET/CT images (30–60 min) focused on the WT and 5xFAD mice brain. (n = 4). […] Data were presented as mean ± standard error of the mean (SEM). Quantification of results was performed using Student's t‐test (****p < 0.0001, ***p < 0.001, **p < 0.01, […]).
The PET/CT studies in mice followed previously reported procedures with minor modifications.^[ [53], [54] ^] […] Reconstructed images were exported from the scanner in DICOM format and were analyzed using PMOD (PMOD 4.01).

T1 sequence (O55242 whole entry): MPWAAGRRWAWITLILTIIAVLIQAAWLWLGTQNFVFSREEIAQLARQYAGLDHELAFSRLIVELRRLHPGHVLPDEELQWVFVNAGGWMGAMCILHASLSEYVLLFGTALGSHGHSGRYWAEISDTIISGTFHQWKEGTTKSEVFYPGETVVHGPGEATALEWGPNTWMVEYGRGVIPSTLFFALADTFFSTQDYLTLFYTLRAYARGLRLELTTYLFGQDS

## Cc1nc(-c2ccc(O[11CH3])cc2)nc(OCCCN2CCCCC2)c1Cl [[^11C]CNY-01]
σ1R [1]; male C57BL/6 mice, baseline PET/CT
  maximum standard uptake value (SUV) in the brain: 1.3
σ1R [1]; pre-treated with 1.0 mg kg^−1 of the corresponding unlabeled ligand
  blocking effect, brain uptake normalized to maximum radioactivity in the blood: significant blocking effect
σ1R [2]
  brain uptake in 5xFAD mice compared to WT mice: significantly lower uptake
